Assays:
[1] = target: T1, Estrogen receptor beta (Homo sapiens, UniProt Q92731)
[2] = target: T1, Estrogen receptor beta; remark: listed apart in the source
[3] = target: T2, Estrogen receptor (Homo sapiens, UniProt P03372)
T2 sequence (P03372 whole entry): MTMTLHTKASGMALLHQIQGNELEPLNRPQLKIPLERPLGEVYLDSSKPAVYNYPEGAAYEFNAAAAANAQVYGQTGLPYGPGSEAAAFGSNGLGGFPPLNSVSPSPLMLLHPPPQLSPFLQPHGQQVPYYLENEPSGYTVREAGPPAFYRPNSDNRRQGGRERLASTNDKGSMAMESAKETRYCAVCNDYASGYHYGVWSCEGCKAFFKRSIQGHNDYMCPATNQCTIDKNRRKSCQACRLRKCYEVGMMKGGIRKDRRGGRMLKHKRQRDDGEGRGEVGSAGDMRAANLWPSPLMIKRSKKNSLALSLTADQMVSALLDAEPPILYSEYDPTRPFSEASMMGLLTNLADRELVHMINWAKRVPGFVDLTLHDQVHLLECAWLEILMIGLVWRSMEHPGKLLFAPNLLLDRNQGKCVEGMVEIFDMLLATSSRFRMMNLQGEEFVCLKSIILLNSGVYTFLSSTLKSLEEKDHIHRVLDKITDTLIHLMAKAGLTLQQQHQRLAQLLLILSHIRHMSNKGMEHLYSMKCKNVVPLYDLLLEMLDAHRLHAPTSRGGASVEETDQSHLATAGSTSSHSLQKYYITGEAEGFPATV

[4] = test system: MCF7
[5] = test system: MCF7; assay: cells; conditions: Homo sapiens
[6] = test system: MCF7; assay: cells; conditions: Homo sapiens; remark: listed apart in the source
[7] = target: T2, Estrogen receptor; remark: listed apart in the source
[8] = Total clearance value was tested after peroral administration (5 mg/kg ) in conscious rat; type: ADME, organism-based; conditions: in vivo, po
[9] = test system: Rattus norvegicus; assay: Maximal blood concentration after peroral administration (dose normalized) (5 mg/kg) in conscious rat; type: ADME, organism-based; set-up: dose 5 mg/kg, route oral; conditions: in vivo, po
[10] = Terminal half life was tested after peroral administration (5 mg/kg) in conscious rat; type: ADME, organism-based; conditions: in vivo, po
[11] = in vivo; conditions: rat, po, 5 mg/kg
[12] = target: T2, Estrogen receptor; assay: Inhibition of estrogen receptor alpha mediated transcriptional activation
[13] = test system: MCF7; remark: listed apart in the source

| Structure (SMILES) | IC50 [1] [nM] | IC50 [2] [nM] | IC50 [3] [nM] | Agonism [4] [%] | EC50 [5] [nM] | IC50 [6] [nM] | IC50 [7] [nM] | CL/F [8] [L/h/kg] | Cmax [9] [µM] | half-life [10] [h] | bioavailability [11] [%] | IC50 [12] [nM] | EC50 [13] [pnM] |
| --- | --- | --- | --- | --- | --- | --- | --- | --- | --- | --- | --- | --- | --- |
| CC1(c2ccc(OCCN3CCCC3)cc2)c2ccc(O)cc2CCN1c1cccc(F)c1 (centres undefined) | 198 | 123 | 39 | 5 | < 0.1 | 3.8 | – | – | – | – | – | – | – |
| CC1(c2ccc(OCCN3CCCC3)cc2)c2ccc(O)cc2CCN1c1ccc(Cl)cc1 (centres undefined) | 531 | 302 | 27 | 10 | < 0.1 | 6.2 | 3.3 | – | – | – | – | – | – |
| CN(C)c1cccc(N2CCc3cc(O)ccc3C2(C)c2ccc(OCCN3CCCC3)cc2)c1 (centres undefined) | 2970 | 2200 | 94 | 19 | < 0.5 | 32 | 19 | – | – | – | – | – | – |
| CC1(c2ccc(OCCN3CCCC3)cc2)c2ccc(O)cc2CCN1c1ccccc1 (centres undefined) | 83 | 227 | 38 | – | – | – | – | – | – | – | – | – | – |
| CC1(c2ccc(OCCN3CCCCC3)cc2)c2ccc(O)cc2CCN1c1ccccc1 (centres undefined) | 83 | 104 | 29 | 13 | < 0.1 | 4 | – | 6.98 | 0.0052 | 5.2 | 23 | – | – |
| CCC(=C(c1ccc(O)cc1)c1ccc(OCCN(C)C)cc1)c1ccccc1 | – | – | – | 31 | 0.12 | 8.5 | – | – | – | – | – | – | – |
| CC1(c2ccc(OCCN3CCCCC3)cc2)c2ccc(O)cc2CCN1c1ccc(Cl)cc1 (centres undefined) | 552 | 396 | 35 | 8 | < 0.1 | 5.2 | – | – | – | – | – | – | – |
| CC1(c2ccc(OCCN3CCCC3)cc2)c2ccc(O)cc2CCN1c1cccc(O)c1 (centres undefined) | 33 | 190 | – | 15 | < 0.5 | 2 | – | 7.78 | 0.0053 | 5.9 | 15 | – | – |
| CC1(c2ccc(OCCN3CCCCC3)cc2)c2ccc(O)cc2CCN1c1cccc(O)c1 (centres undefined) | 47 | 304 | 34 | 10 | < 0.1 | 2 | – | – | – | – | – | – | – |
| Cl.Oc1ccc2c(c1)CC[C@H](c1ccccc1)[C@@H]2c1ccc(OCCN2CCCC2)cc1 | – | – | – | – | 0.02 | – | – | 3.34 | 0.0155 | 5.2 | 38 | – | – |
| CC1(c2ccc(OCCN3CCCCCC3)cc2)c2ccc(O)cc2CCN1c1ccccc1 (centres undefined) | 80 | 200 | 56 | 13 | < 0.1 | 6 | – | – | – | – | – | – | – |
| Oc1ccc2c(c1)CCN(c1ccccc1)C2c1ccc(F)cc1 (centres undefined) | – | – | – | – | 1 | – | – | – | – | – | – | – | – |
| CC(C)c1ccc(N2CCc3cc(O)ccc3C2(C)c2ccc(OCCN3CCCCC3)cc2)cc1 (centres undefined) | 4780 | 3690 | 71 | 14 | < 0.1 | 3.4 | – | – | – | – | – | – | – |
| CC(C)c1cccc(N2CCc3cc(O)ccc3C2(C)c2ccc(OCCN3CCCCC3)cc2)c1 (centres undefined) | 492 | 1100 | 46 | 16 | < 0.4 | 27 | 16.1 | – | – | – | – | – | – |
| Cc1ccc(N2CCc3cc(O)ccc3C2(C)c2ccc(OCCN3CCCC3)cc2)cc1 (centres undefined) | 448 | 354 | 31 | 14 | < 0.1 | 4.1 | – | – | – | – | – | 3.5 | – |
| CN(C)c1cccc(N2CCc3cc(O)ccc3C2(C)c2ccc(OCCN3CCCCC3)cc2)c1 (centres undefined) | 2180 | 3110 | 71 | 18 | < 0.5 | 36 | 19.8 | – | – | – | – | – | – |
| Oc1ccc2c(c1)CCN(c1ccccc1)C2c1ccc(OCCN2CCCC2)cc1 (centres undefined) | 291 | 166 | 21 | 34 | < 0.1 | 29 | 10.7 | 3.3 | 0.055 | 3 | 73 | – | – |
| CC(C)c1ccc(N2CCc3cc(O)ccc3C2(C)c2ccc(OCCN3CCCC3)cc2)cc1 (centres undefined) | 4970 | 1970 | 44 | 10 | < 0.1 | 3.2 | – | – | – | – | – | – | – |
| CC1(c2ccc(OCCN3CCCCC3)cc2)c2ccc(O)cc2CCN1c1ccc(F)cc1 (centres undefined) | 92 | 317 | – | 13 | – | – | – | 3.89 | 0.016 | 7.1 | 56 | – | – |
| CC/C(=C(\c1ccccc1)c1ccc(OCCN(C)C)cc1)c1ccccc1 [TAMOXIFEN] | – | – | – | – | 10 | – | – | – | – | – | – | – | – |
| CC1(c2ccc(OCCN3CCCC3)cc2)c2ccc(O)cc2CCN1c1cccc(Cl)c1 (centres undefined) | 106 | 272 | 66 | 20 | < 0.1 | 7 | – | – | – | – | – | – | – |
| Cl.O=C(c1ccc(OCCN2CCCCC2)cc1)c1c(-c2ccc(O)cc2)sc2cc(O)ccc12 [RALOXIFENE HYDROCHLORIDE] | – | – | – | – | 0.02 | – | – | 9.46 | 0.0075 | 1.7 | – | – | – |
| Oc1ccc2c(c1)CCN(c1ccccc1)C2c1ccc(OCCN2CCCCC2)cc1 (centres undefined) | – | – | – | – | – | – | – | 3.11 | 0.031 | 3.5 | 42 | – | < 0.15 |
| CC1(c2ccc(OCCN3CCCCC3)cc2)c2ccc(O)cc2CCN1c1cccc(Cl)c1 (centres undefined) | 159 | 284 | 49 | 18 | < 0.1 | 8 | – | – | – | – | – | – | – |
| CC1(c2ccc(OCCN3CCCC3)cc2)c2ccc(O)cc2CCN1c1ccc(F)cc1 (centres undefined) | 82 | 204 | 31 | 16 | < 0.1 | 3.5 | – | 2.71 | 0.02 | 8.6 | 53 | – | – |
| Cc1ccc(N2CCc3cc(O)ccc3C2(C)c2ccc(OCCN3CCCCC3)cc2)cc1 (centres undefined) | 486 | 421 | 28 | 9 | < 0.1 | 4 | 2.9 | – | – | – | – | – | – |

Source: ChEMBL document CHEMBL1145829, “Estrogen receptor modulators: identification and structure-activity relationships of potent ERalpha-selective tetrahydroisoquinoline ligands” (J Med Chem, 2003)
